# Experimental data published in paper PMC8501045, “Addressing MRSA infection and antibacterial resistance with peptoid polymers” (Nature Communications, 2021).
# What was measured:
# [1] = test system: E. faecium 1205; test: MIC assay, clinical isolate; format: cell-based; details: Enterococcus faecium, 1205
# Procedure: (§1) MRSA (S. aureus Mu50, S. aureus Newman, S. aureus USA400, S. aureus USA300 LAC, S. aureus USA300) were obtained from Shanghai Institute of Materia Medica, Chinese Academy of Sciences. All clinically isolated Gram-positive bacteria used in this study were isolated from patients with various infections, different ages and sexes in the Shanghai Ruijin Rehabilitation Hospital. All strains were cultured in Luria-Bertani (LB) medium at 37 °C before use.
# (§2) Bacteria were cultured in LB medium at 37 °C for 10 h, and then the bacterial suspension was diluted in Mueller–Hinton (MH) medium to a cell density of 2 × 10^5 colony forming units (CFU)/mL as the working suspension. The poly(Naeg)20 was serially diluted by MH medium in a 96-well plate, and an equal volume of bacterial suspension was added into each well. The final concentration of the poly(Naeg)20 was ranging from 200 to 1.56 μg/mL, and the plates were incubated at 37 °C for 9 h. Wells with inoculum and no polymer were used as the positive control; wells with only MH medium were used as the blank. The optical density (OD) in each well was measured on a Molecular Devices SpectraMax M2 precision microplate reader. The percentage of bacteria growth was calculated from1 %cellgrowth=A600polymer-A600blank/A600control-A600blank×100
# (§3) The test was independently repeated at least three times.
# [2] = test system: S. aureus 2904; test: MIC assay, clinical isolate; format: cell-based; details: Staphylococcus aureus, 2904
# Procedure: as §1, §2, §3
# [3] = test system: S. haemolyticus 1107; test: MIC assay, clinical isolate; format: cell-based; details: Staphylococcus haemolyticus, 1107
# Procedure: as §1, §2, §3
# [4] = test system: E. faecalis 0609; test: MIC assay, clinical isolate; format: cell-based; details: Enterococcus faecalis, 0609
# Procedure: as §1, §2, §3
# [5] = test system: S. haemolyticus 0202; test: MIC assay, clinical isolate; format: cell-based; details: Staphylococcus haemolyticus, 0202
# Procedure: as §1, §2, §3
# [6] = test system: S. aureus 2802; test: MIC assay, clinical isolate; format: cell-based; details: Staphylococcus aureus, 2802
# Procedure: as §1, §2, §3
# [7] = test system: E. faecium 0502; test: MIC assay, clinical isolate; format: cell-based; details: Enterococcus faecium, 0502
# Procedure: as §1, §2, §3
# [8] = test system: E. faecium 0610; test: MIC assay, clinical isolate; format: cell-based; details: Enterococcus faecium, 0610
# Procedure: as §1, §2, §3
# [9] = test system: S. haemolyticus 1303; test: MIC assay, clinical isolate; format: cell-based; details: Staphylococcus haemolyticus, 1303
# Procedure: as §1, §2, §3
# [10] = test system: E. faecium 2504; test: MIC assay, clinical isolate; format: cell-based; details: Enterococcus faecium, 2504
# Procedure: as §1, §2, §3
# [11] = test system: S. epidermidis 0501; test: MIC assay, clinical isolate; format: cell-based; details: Staphylococcus epidermidis, 0501
# Procedure: as §1, §2, §3
# [12] = test system: S. aureus 2902; test: MIC assay, clinical isolate; format: cell-based; details: Staphylococcus aureus, 2902
# Procedure: as §1, §2, §3
# [13] = test system: S. agalactiae 0613; test: MIC assay, clinical isolate; format: cell-based; details: Streptococcus agalactiae, 0613
# Procedure: as §1, §2, §3
# [14] = test system: S. aureus 2202; test: MIC assay, clinical isolate; format: cell-based; details: Staphylococcus aureus, 2202
# Procedure: as §1, §2, §3
# [15] = test system: S. epidermidis 9397; test: MIC assay, clinical isolate; format: cell-based; details: Staphylococcus epidermidis, 9397
# Procedure: as §1, §2, §3
# [16] = test system: E. faecium 0609; test: MIC assay, clinical isolate; format: cell-based; details: Enterococcus faecium, 0609
# Procedure: as §1, §2, §3
# [17] = test system: E. faecalis 2305; test: MIC assay, clinical isolate; format: cell-based; details: Enterococcus faecalis, 2305
# Procedure: as §1, §2, §3
# [18] = test system: S. aureus USA300 biofilm formation; test: Inhibition study on biofilm formation; format: cell-based, Staphylococcus aureus
# Procedure: The plate was incubated at 37 °C for 24 h, and then the culture medium was removed, washed with PBS once, followed by adding 100 µL MTT solution (0.5 mg/mL) into the corresponding well. After further incubation at 37 °C for 4 h in the dark, the MTT solution was removed. An aliquot of 100 μL DMSO was added to each well to solubilize the purple solid and then the OD value was collected at 570 nm on a microplate reader. Wells containing inoculum and without antibacterial agents were used as the positive control; wells containing only MH medium were used as the blank. The percentage of surviving cells within biofilm was calculated from4 %cellviability=A570polymer-A570blank/A570control-A570blank×100
# as §3
smiles,measurement,setting,value
CN[C@H](CC(C)C)C(=O)N[C@H]1C(=O)N[C@@H](CC(N)=O)C(=O)N[C@H]2C(=O)N[C@H]3C(=O)N[C@H](C(=O)N[C@H](C(=O)O)c4cc(O)cc(O)c4-c4cc3ccc4O)[C@H](O)c3ccc(c(Cl)c3)Oc3cc2cc(c3O[C@@H]2O[C@H](CO)[C@@H](O)[C@H](O)[C@H]2O[C@H]2C[C@](C)(N)[C@H](O)[C@H](C)O2)Oc2ccc(cc2Cl)[C@H]1O [Vancomycin],MIC,[1],0.39 mg/L
same,MIC,[2],0.39 mg/L
same,MIC,[3],0.78 mg/L
same,MIC,[4],0.39 mg/L
same,MIC,[5],1.56 mg/L
same,MIC,[6],0.39 mg/L
same,MIC,[7],> 200 mg/L
same,MIC,[8],0.78 mg/L
same,MIC,[9],0.78 mg/L
same,MIC,[10],0.78 mg/L
same,MIC,[11],0.78 mg/L
same,MIC,[12],0.39 mg/L
same,MIC,[13],0.78 mg/L
same,MIC,[14],0.78 mg/L
same,MIC,[15],0.78 mg/L
same,MIC,[16],50 mg/L
same,MIC,[17],0.78 mg/L
same,concentration required to inhibit the formation of S. aureus biofilm,[18],2 × MIC
